Consider 12 compounds from patent US20240279207A1, “SUBSTITUTED ACYL SULFONAMIDES FOR TREATING CANCER” (The Broad Institute, Inc., priority 2020, published 2024).

In assay [1] the target is T1, Recombinant human His-tagged Kat6a protein (amino acids 194-810) (Homo sapiens, UniProt Q92794).
T1 construct: Kat6a protein (amino acids 194-810); His
The assay is described as follows: Kat6a activity assay (TR-FRET, acetylation of Histone-H4-derived peptide). Format: biochemical. The following applies: 60 mins at 22° C., 220 nM H4 peptide, 600 nM Acetyl Coenzyme A, read-out: KAT6A - DPF/HAT domain IC50 [mol/l] (arithmetic mean). As for the experimental part: Kat6a inhibitory activities of the compounds described in the present invention were quantified using a Fluorescence Resonance Energy Transfer (TR-FRET) assay which measures acetylation of a synthetic, biotinylated Histone-H4-derived peptide by the enzyme.
In this case 50 nl DMSO were used instead of compounds. […] IC50 values were determined by regression analysis based on a 4 parameter equation (minimum, maximum, ICM, Hill; Y=Max+(Min−Max)/(1+(X/ICso) Hill) using the Screener Software (Genedata).

Assay [2] relates to ESR1 transcription in MVLN cells. The assay is described as follows: MVLN reporter assay: repression of ESR1 transcription (luciferase signal). It counts as cell-based. To be noted: Homo sapiens, MVLN, 24 h, luciferase signal after 24 h, read-out: MVLN reporter assay, IC50 [M] (arithmetic mean). An excerpt:
KAT6A controls transcription of the ESR1 gene in breast cancer cells. Compound treatment that interferes with this mechanism was quantified using MVLN cells. These cells constitutively express the ER and are stably transfected with the luciferase (LUC) reporter gene and the corresponding hormone responsive element derived from the 5′-flanking region of the Xenopus Vitellogenin A2 gene (Pons et al., 1990, Demirpense et al., 1993, Joyeux et al., 1993). The repressive effect on ERα transcription activity of a test chemical is directly related to the luciferase measured in the lysate of treated MVLN cells. […] Each sample was prepared as duplicate and rim wells were excluded. For luciferase signal determination 100 μl of a 1:1 mixture of Steadylite plus (Perkin Elmer; 6016759) and assay medium was added after 24 h for 15 minutes and measured in Victor X3 (Perkin Elmer). To exclude any effects caused by cell loss during the treatment, cell density was determined using Alamar Blue (Invitrogen; DAL1100). Prior to the luciferase measurement 10 μl Alamar Blue were added to each well and the plates were incubated for 2 h in the incubator. Then fluorescence was measured with Victor X3 (Perkin Elmer) at 530 nm/590 nm.
For orientation: Reporter assays use an easily measured gene product as a stand-in for the process of interest.

SMILES strings stand for the structures.

T1 sequence (Q92794 194-810): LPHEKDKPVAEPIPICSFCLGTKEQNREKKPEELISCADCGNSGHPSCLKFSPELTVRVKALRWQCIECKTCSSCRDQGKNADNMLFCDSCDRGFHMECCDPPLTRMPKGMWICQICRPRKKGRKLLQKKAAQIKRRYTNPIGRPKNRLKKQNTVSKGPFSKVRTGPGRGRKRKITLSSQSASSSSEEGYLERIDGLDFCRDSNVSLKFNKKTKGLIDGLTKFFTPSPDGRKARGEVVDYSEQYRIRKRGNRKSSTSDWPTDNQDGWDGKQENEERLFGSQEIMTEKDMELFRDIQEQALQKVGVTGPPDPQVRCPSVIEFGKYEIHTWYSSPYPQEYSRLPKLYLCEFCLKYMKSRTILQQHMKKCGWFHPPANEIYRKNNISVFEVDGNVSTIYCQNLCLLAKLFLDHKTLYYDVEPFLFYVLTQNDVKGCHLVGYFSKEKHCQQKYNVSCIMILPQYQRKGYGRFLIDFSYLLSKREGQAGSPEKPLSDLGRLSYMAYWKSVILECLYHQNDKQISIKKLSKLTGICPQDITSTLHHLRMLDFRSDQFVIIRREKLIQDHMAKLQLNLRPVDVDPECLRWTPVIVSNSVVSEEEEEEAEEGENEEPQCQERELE

In the case of `Cc1ccc(S(=O)(=O)NC(=O)c2cc3c(F)cc(N4CCC4)cc3o2)c(OC(F)F)c1` [Example 35, 6-(Azetidin-1-yl)-N-[2-(difluoromethoxy)-4-methylbenzene-1-sulfonyl]-4-fluoro-1-benzofuran-2-carboxamide], the figures for the IC50 in assay [1] and in assay [2] were 42.1 nM and 6.09e-07 M, respectively.

As for `CCc1csc(C)c1S(=O)(=O)NC(=O)c1cc2c(F)cc(N3CCC3)cc2o1` [Example 36, 6-(Azetidin-1-yl)-N-(4-ethyl-2-methylthiophene-3-sulfonyl)-4-fluoro-1-benzofuran-2-carboxamide], the IC50 in assay [1] came to 367 nM; in assay [2], 6.04e-07 M.

Take `Cc1noc(-c2ccccc2S(=O)(=O)NC(=O)c2cc3c(F)cc(N4CCC4)cc3o2)n1` [Example 37, 6-(Azetidin-1-yl)-4-fluoro-N-[2-(3-methyl-1,2,4-oxadiazol-5-yl)benzene-1-sulfonyl]-1-benzofuran-2-carboxamide]: the IC50 in assay [1] came to 181 nM; in assay [2], 7.04e-07 M.

For the compound `CC(C)c1cc(Br)ccc1S(=O)(=O)NC(=O)c1cc2c(F)cc(N3CCC3)cc2o1` [Example 38, 6-(Azetidin-1-yl)-N-[4-bromo-2-(propan-2-yl)benzene-1-sulfonyl]-4-fluoro-1-benzofuran-2-carboxamide], the IC50 in assay [1] was determined as 85.5 nM; in assay [2], 7.07e-07 M.

On to `CCCc1cccc(S(=O)(=O)NC(=O)c2cc3c(F)cc(N4CCC4)cc3o2)c1` [Example 40, 6-(Azetidin-1-yl)-4-fluoro-N-(3-propylbenzene-1-sulfonyl)-1-benzofuran-2-carboxamide], for which the results for the IC50 in assay [1] and in assay [2] were 64.2 nM and 7.89e-07 M, respectively.

For `Cn1ccc2cccc(S(=O)(=O)NC(=O)c3cc4c(F)cc(N5CCC5)cc4o3)c21` [Example 41, 6-(Azetidin-1-yl)-4-fluoro-N-(1-methyl-1H-indole-7-sulfonyl)-1-benzofuran-2-carboxamide], the IC50 in assay [1] worked out at 90.1 nM; in assay [2], 8.57e-07 M.

Take `CC(C)Nc1cccc(F)c1S(=O)(=O)NC(=O)c1cc2c(F)cc(N3CCC3)cc2o1` [Example 42, 6-(Azetidin-1-yl)-4-fluoro-N-{2-fluoro-6-[(propan-2-yl)amino]benzene-1-sulfonyl}-1-benzofuran-2-carboxamide]: the IC50 was 179 nM in assay [1] and 8.64e-07 M in assay [2].

Turning to `Cc1ccc(F)c(S(=O)(=O)NC(=O)c2cc3c(F)cc(N4CCC4)cc3o2)c1` [Example 43, 6-(Azetidin-1-yl)-4-fluoro-N-(2-fluoro-5-methylbenzene-1-sulfonyl)-1-benzofuran-2-carboxamide], the IC50 in assay [1] stood at 218 nM; in assay [2] it was 9.91e-07 M.

For the compound `CCc1noc(-c2ccccc2S(=O)(=O)NC(=O)c2cc3c(F)cc(N4CCC4)cc3o2)n1` [Example 44, 6-(Azetidin-1-yl)-N-[2-(3-ethyl-1,2,4-oxadiazol-5-yl)benzene-1-sulfonyl]-4-fluoro-1-benzofuran-2-carboxamide], the IC50 was determined as 189 nM in assay [1] and 1.01e-06 M in assay [2].

With `O=C(NS(=O)(=O)c1ccccc1S(=O)(=O)c1ccccc1)c1cc2c(F)cc(N3CCC3)cc2o1` [Example 45, 6-(Azetidin-1-yl)-N-[2-(benzenesulfonyl)benzene-1-sulfonyl]-4-fluoro-1-benzofuran-2-carboxamide], the IC50 in assay [1] came out at 111 nM; in assay [2], 1.1e-06 M.

Regarding `CCNc1ccccc1S(=O)(=O)NC(=O)c1cc2c(F)cc(N3CCC3)cc2o1` [Example 46, 6-(azetidin-1-yl)-N-[2-(ethylamino)benzene-1-sulfonyl]-4-fluoro-1-benzofuran-2-carboxamide], the IC50 in assay [1] came out at 122 nM; in assay [2], 1.15e-06 M.

As for `CCN(C)C(=O)c1ccccc1S(=O)(=O)NC(=O)c1cc2c(F)cc(N3CCC3)cc2o1` [Example 47, 6-(Azetidin-1-yl)-N-{2-[ethyl(methyl)carbamoyl]benzene-1-sulfonyl}-4-fluoro-1-benzofuran-2-carboxamide], the results for the IC50 in assay [1] and in assay [2] were 109 nM and 1.3e-06 M, respectively.
